From US20190218226A1, “PRODRUGS OF ANTICANCER AGENTS INDOTECAN AND INDIMITECAN” (Purdue Research Foundation, priority 2016, published 2019) come the findings set out here.

One data set relates to HOP-62. Kind of data set: NCI60 antiproliferative screen, lung HOP-62. Type of data set: cell-based, human. As to conditions: HOP-62, 48 h, sulforhodamine B; read-out: Cytotoxicity (GI50) lung HOP-62. The method, boiled down:
(§1)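 Standard NCI60 protocol: 48 h compound treatment (0.01, 0.1, 1, 10, 100 μM), sulforhodamine B staining, optical density ratio to untreated control. GI50 values come from interpolation on a log10 concentration plot.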

The subject of another data set is SF-539. Kind of data set: NCI60 antiproliferative screen, CNS SF-539. Type of data set: cell-based, human. As to conditions: SF-539, 48 h, sulforhodamine B; read-out: Cytotoxicity (GI50) CNS SF-539. The method, boiled down:
as §1

The subject of a further data set is UACC-62. Kind of data set: NCI60 antiproliferative screen, melanoma UACC-62. Type of data set: cell-based, human. Particulars: UACC-62, 48 h, sulforhodamine B; read-out: Cytotoxicity (GI50) melanoma UACC-62. The method in brief: as §1
The test system of the next data set is SN12C. Kind of data set: NCI60 antiproliferative screen, renal SN12C. It counts as cell-based, human. Particulars: 48 h, sulforhodamine B, read-out: Cytotoxicity (GI50) renal SN12C. The method in brief:
as §1

The subject of another data set is DU-145. The data set is described as follows: NCI60 antiproliferative screen, prostate DU-145. It counts as cell-based, human. As to conditions: DU-145, 48 h, sulforhodamine B; read-out: Cytotoxicity (GI50) prostate DU-145. The method, boiled down: as §1
The subject of the next data set is MCF-7. The data set is described as follows: NCI60 antiproliferative screen, breast MCF-7. Type of data set: cell-based, human. As to conditions: MCF-7, 48 h, sulforhodamine B; read-out: Cytotoxicity (GI50) breast MCF-7. The method in brief: as §1
Data set [1] in a line: Stability of compound 17 in cell culture medium. It counts as physicochemical. Particulars: 10 μM, cell-free RPMI 1640 medium, 37° C., after 99 hours. On the procedure:
In order to investigate the possibility that hydrolysis of the prodrugs takes place extracellularly rather than intracellularly, compound 17 was added to cell-free cell culture medium and the mixture was incubated at 37° C. Relatively slow conversion to the parent phenol 9 was observed, with 22% conversion after 99 hours.
Stability of Compound 17 in Cell Culture Medium.
RPMI 1640 medium was purchased from Sigma-Aldrich (St. Louis, Mo.). Compound 17 (10 μM) was incubated at 37° C. with RPMI 1640 medium. After 99 h, an aliquot was taken from the incubation mixture and filtered prior to analysis using LC-MS (Waters, Germany). The flow rate was 0.75 mL/min and the eluent was recorded with a DAD at 280 nm.

Structures are written as SMILES.

Regarding `COC(=O)CCC(=O)Oc1cc2c(=O)n(CCCN3CCOCC3)c3c(c2cc1OC)C(=O)c1cc2c(cc1-3)OCO2` [Compound 17, 2-Methoxy-6-(3-morpholinopropyl)-5,12-dioxo-6,12-dihydro-5H-[1,3]dioxolo[4′,5′:5,6]indeno[1,2-c]isoquinolin-3-yl Methyl Succinate], the GI50 is 16 nM in the data set on HOP-62; less than 10 nM in the data set on SF-539; 18 nM in the data set on UACC-62; less than 10 nM in the data set with SN12C; 14 nM in the data set with DU-145; less than 10 nM in the data set with MCF-7. The “conversion to the parent phenol 9” value in data set [1] was 22%.
